Experimental data reported in PubChem BioAssay (NCI).
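Test compounds were applied to cells in 96-well plates for 48 hours at 5 doses. At the TGI there is no net growth.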

Legend:
Assay in all cases: inhibition of tumour cell growth, NCI panel, 48 h
SN12C renal = system: SN12C renal
SK-MEL-5 melanoma = system: SK-MEL-5 melanoma
OVCAR-8 ovarian = system: OVCAR-8 ovarian
LOX IMVI melanoma = system: LOX IMVI melanoma
DU-145 prostate = system: DU-145 prostate
MOLT-4 leukemia = system: MOLT-4 leukemia
786-0 renal = system: 786-0 renal
HOP-92 NSCLC = system: HOP-92 NSCLC
MDA-N = system: MDA-N
U251 CNS = system: U251 CNS
SK-MEL-28 melanoma = system: SK-MEL-28 melanoma
HL-60(TB) leukemia = system: HL-60(TB) leukemia
MDA-MB-435 = system: MDA-MB-435
OVCAR-3 ovarian = system: OVCAR-3 ovarian
M14 melanoma = system: M14 melanoma
RPMI-8226 leukemia = system: RPMI-8226 leukemia
CCRF-CEM leukemia = system: CCRF-CEM leukemia
SF-295 CNS = system: SF-295 CNS
TK-10 renal = system: TK-10 renal
NCI-H226 lung = system: NCI-H226 lung

| SMILES | TGI (SN12C renal) | TGI (SK-MEL-5 melanoma) | TGI (OVCAR-8 ovarian) | TGI (LOX IMVI melanoma) | TGI (DU-145 prostate) | TGI (MOLT-4 leukemia) | TGI (786-0 renal) | TGI (HOP-92 NSCLC) | TGI (MDA-N) | TGI (U251 CNS) | TGI (SK-MEL-28 melanoma) | TGI (HL-60(TB) leukemia) | TGI (MDA-MB-435) | TGI (OVCAR-3 ovarian) | TGI (M14 melanoma) | TGI (RPMI-8226 leukemia) | TGI (CCRF-CEM leukemia) | TGI (SF-295 CNS) | TGI (TK-10 renal) | TGI (NCI-H226 lung) |
| --- | --- | --- | --- | --- | --- | --- | --- | --- | --- | --- | --- | --- | --- | --- | --- | --- | --- | --- | --- | --- |
| CC1(C)OCC2(CO1)CSCCCSCC1(COC(C)(C)OC1)CSCCCSC2 | > 100 µM | > 100 µM | > 100 µM | > 100 µM | > 100 µM | > 100 µM | > 100 µM | > 100 µM | > 100 µM | > 100 µM | > 100 µM | > 100 µM | > 100 µM | > 100 µM | > 100 µM | > 100 µM | > 100 µM | > 100 µM | > 100 µM |  |
| O=C1CSC(/C=C/c2ccccc2)N1c1ccc(-c2ccc(-n3c(-c4ccccc4)nc4ccccc4c3=O)cc2)cc1 (stereo unspecified) | > 100 µM | 27.7 µM | 92.7 µM | 32.7 µM | > 100 µM | > 100 µM | 29.6 µM | 56.2 µM | 67.9 µM | 88.5 µM | 53.3 µM | > 100 µM | 49.3 µM | 84.6 µM | 35.4 µM | > 100 µM | 64.5 µM | 55.7 µM | > 100 µM |  |
| CC1=NN(c2nc(N)nc(/C(C#N)=C/c3ccc([N+](=O)[O-])o3)n2)C(C)(C)C1 |  | 17 µM | 8.91 µM | 3.07 µM | 17 µM | 6.12 µM | 2.99 µM | 3.4 µM | > 100 µM | 11.3 µM | 19.1 µM | 6.32 µM | 6.38 µM | 11.1 µM | 2.75 µM | > 22.8 µM | > 100 µM | 33.8 µM | 4.52 µM | 6.9 µM |
| CN1CCC(CNC(=O)CCCCCCCCC(=O)NCC2(c3ccccc3)CCN(C)CC2)(c2ccccc2)CC1 | > 100 µM | > 100 µM | > 100 µM | > 100 µM | > 100 µM | > 100 µM | > 100 µM |  | > 100 µM | > 100 µM | > 100 µM | > 100 µM | > 100 µM | > 100 µM | > 100 µM | > 100 µM | > 100 µM | > 100 µM | > 100 µM | > 100 µM |
| CCCCC1Cc2ccccc2-c2n1c1ccccc1[n+]2C (stereo unspecified) |  | 18 µM | > 100 µM | 62.3 µM | > 100 µM | 81.8 µM | > 100 µM | > 100 µM | 64.5 µM | > 100 µM | 91 µM | 22.9 µM | > 100 µM | > 100 µM | > 100 µM | 14 µM | > 100 µM | > 100 µM | > 100 µM | > 100 µM |
| Cc1nc(Cl)c2sc(=S)n(-c3ccc(F)cc3)c2n1 | 18.4 µM | 10.3 µM | 33.8 µM | 3.61 µM | 3.82 µM |  | 11.9 µM | 33.1 µM | 3.95 µM | 17.7 µM | 10.6 µM | 43.2 µM | 8.68 µM | 7.02 µM | 8.38 µM | > 100 µM | > 100 µM | 22.8 µM | 12.8 µM | 34.6 µM |
| CCN(CC)c1ccc2c(c1)OC(=O)C(c1nnc(-c3ccc([N+](=O)[O-])cc3)o1)C2 (stereo unspecified) |  | > 100 µM | > 100 µM | > 100 µM | > 100 µM | > 100 µM | > 100 µM | > 100 µM | > 100 µM | > 100 µM | > 100 µM | > 100 µM | > 100 µM | > 100 µM | > 100 µM | > 100 µM | > 100 µM | > 100 µM | > 100 µM | > 100 µM |
| O=c1[nH]c(=O)n(C2CC(O)C(CO)O2)cc1NN=NCCc1ccccc1 (stereo unspecified) | > 100 µM | > 100 µM | > 100 µM | > 100 µM | > 100 µM | > 100 µM | > 100 µM |  | > 100 µM | > 100 µM | > 100 µM | > 100 µM | > 100 µM | > 100 µM | > 100 µM | > 100 µM | > 100 µM | > 100 µM | > 100 µM | > 100 µM |
| CCOc1cc(-c2nc3ccccn3c2/N=C/c2cc([N+](=O)[O-])cc([N+](=O)[O-])c2O)ccc1O | > 100 µM | > 100 µM | > 100 µM | > 100 µM | > 100 µM | > 100 µM | > 100 µM | > 100 µM | > 100 µM | > 100 µM | > 100 µM | > 100 µM | > 100 µM | > 100 µM | > 100 µM | > 100 µM | > 100 µM | > 100 µM | > 100 µM |  |
| Nc1nc(N)c(C2=CCN(Cc3ccccc3)CC2)c(=O)[nH]1 | > 100 µM | > 100 µM | > 100 µM |  | > 100 µM | > 100 µM | > 100 µM | > 100 µM | > 100 µM | > 100 µM | > 100 µM | > 100 µM | > 100 µM | > 100 µM | > 100 µM | > 100 µM | > 100 µM | > 100 µM |  | > 100 µM |
| COc1cc(O)c2c(=O)c(OC)c(-c3ccc4c(c3)OCO4)oc2c1 | > 100 µM | 98.1 µM | > 100 µM | > 100 µM | > 100 µM | > 100 µM | > 100 µM | > 57.7 µM | > 100 µM | 30.2 µM | > 100 µM | > 100 µM | > 100 µM |  | > 100 µM | > 100 µM | > 100 µM | > 92.2 µM | > 100 µM | > 100 µM |
| CC(CN(C)C)C(=O)c1ccccc1C(=O)O (stereo unspecified) | 81.2 µM | > 100 µM | 98.8 µM | > 100 µM | > 100 µM | 70.1 µM | > 100 µM | > 100 µM | > 100 µM | 38.2 µM | > 100 µM | 49.4 µM | 50.9 µM | 54.1 µM | 76.6 µM | 78 µM | 30.3 µM | > 100 µM | 47.7 µM |  |
| O=c1[nH]c(=O)n(C2CC(O)C(CO)O2)cc1OCCc1ccccc1 (stereo unspecified) | > 100 µM | > 100 µM | > 100 µM | > 100 µM | > 100 µM | > 100 µM | > 100 µM |  | > 100 µM | > 100 µM | > 100 µM | > 100 µM | > 100 µM | > 100 µM | > 100 µM | > 100 µM | > 100 µM | > 100 µM | > 100 µM | > 100 µM |
| NC(=O)c1cc(-c2ccc(-n3ccnc3)cc2)n[nH]c1=O | > 100 µM | > 100 µM | > 100 µM |  | > 100 µM | > 100 µM | > 100 µM | > 100 µM | > 100 µM | > 100 µM | > 100 µM | > 100 µM | > 100 µM |  | > 100 µM | > 100 µM | > 100 µM |  | > 100 µM |  |
| N=C(N)C1CN(CCc2cnc[nH]2)C(=O)NC1=O (stereo unspecified) | > 100 µM | > 100 µM | > 100 µM |  | > 100 µM | > 100 µM | > 100 µM | > 100 µM | > 100 µM | > 100 µM | > 100 µM | > 100 µM | > 100 µM | > 100 µM | > 100 µM | > 100 µM | > 100 µM | > 100 µM | > 100 µM |  |
| CCC(CS(=O)(=O)O)[N+](=O)[O-] (stereo unspecified) | > 100 µM | > 100 µM | > 100 µM | > 100 µM | > 100 µM | > 100 µM | > 100 µM |  | > 100 µM | > 100 µM | > 100 µM | > 100 µM | > 100 µM | > 100 µM | > 100 µM | > 100 µM | > 100 µM | > 100 µM | > 100 µM | > 100 µM |
| NCC[Se][Se]CCN | 21.5 µM | 18.4 µM | 38.1 µM |  | 26.4 µM | > 100 µM | 29.4 µM | 35.8 µM | 23.4 µM | 24.1 µM | 29.7 µM | 7.57 µM | 24.9 µM | 28.3 µM | 13.3 µM | > 100 µM | 45.6 µM | 11.5 µM | 30.7 µM | 29.1 µM |
| NC(=O)C(c1ccccc1)N1OC2C(=O)N(Cc3ccccc3)C(=O)C2C1c1cccc(Oc2ccc(Cl)cc2)c1 (stereo unspecified) | 30.7 µM | 30.4 µM | > 100 µM | 34.2 µM | > 100 µM | 98.9 µM | 50 µM | > 100 µM | 49.7 µM | 85.6 µM | > 100 µM | 51.2 µM | > 100 µM | 43.1 µM | 69.5 µM |  | > 100 µM | > 100 µM | 95.6 µM | > 100 µM |
| O=C1c2cccc3cccc(c23)C(=O)N1CCCNCCCCNCCCN1C(=O)c2cccc3cccc(c23)C1=O | 2.37 µM | 1.93 µM | 2.24 µM | 0.255 µM | 1.14 µM |  | 0.734 µM | 1.59 µM | 1.47 µM | 1.22 µM | 0.938 µM | 1.93 µM | 1.28 µM | 4.58 µM | 1.94 µM | 0.179 µM | 0.205 µM | 3.4 µM | 7.62 µM | 2.5 µM |
